Assay results taken from ChEMBL document CHEMBL5576127, “New CDDO Arylboronate Ester Derivatives with High Selectivity and Low Toxicity” (J Med Chem, 2024).
Calls of active or inactive are those of the source. The rule behind the calls is not given here.

What was measured:
MCF7 = assay: Antiproliferative activity against human MCF7 cells assessed as inhibition of cell proliferation incubated for 48 hrs by MTT assay; format: functional, cell-based; details: MCF7, 48 h
HepG2 = assay: Antiproliferative activity against human HepG2 cells assessed as inhibition of cell proliferation incubated for 48 hrs by MTT assay; format: functional, cell-based; details: HepG2, 48 h
[1] = Cytotoxicity against human MCF-10A cells assessed as inhibition of cell proliferation incubated for 48 hrs by MTT assay; format: toxicity, cell-based
[2] = Cytotoxicity against human GES1 cells assessed as inhibition of cell proliferation incubated for 48 hrs by MTT assay; format: toxicity, cell-based
[3] = Cytotoxicity against human L02 cells assessed as inhibition of cell proliferation incubated for 48 hrs by MTT assay; format: toxicity, cell-based
MGC-803 = assay: Antiproliferative activity against human MGC-803 cells assessed as inhibition of cell proliferation incubated for 48 hrs by MTT assay; format: functional, cell-based; details: MGC-803, 48 h
SGC-7901 = assay: Antiproliferative activity against human SGC-7901 cells assessed as inhibition of cell proliferation incubated for 48 hrs by MTT assay; format: functional, cell-based; details: SGC-7901, 48 h
NCI-N87 = assay: Antiproliferative activity against human NCI-N87 cells assessed as inhibition of cell proliferation incubated for 48 hrs by MTT assay; format: functional, cell-based; details: NCI-N87, 48 h
BGC-823 [4] = assay: Antiproliferative activity against human BGC-823 cells assessed as inhibition of cell proliferation preincubated with H2O2 for 2 hrs followed by compound addition and measured after 48 hrs by MTT assay; format: functional, cell-based
Cell membrane [5] = assay: Induction of mitochondrial membrane potential loss in human BGC-823 cells assessed as increase in number of cells with J-monomers by measuring green fluorescence at 6 uM incubated for 24 hrs by JC-1 staining based flow cytometric analysis (reference value: 0.33%); format: cell membranes
Cell membrane [6] = assay: Induction of mitochondrial membrane potential loss in human BGC-823 cells assessed as decrease in number of cells with J-aggregates by measuring red fluorescence at 6 uM incubated for 24 hrs by JC-1 staining based flow cytometric analysis (reference value: 99.7 %); format: cell membranes; design: scale not given: the % may be the effect or the level left
BGC-823 [7] = assay: Induction of apoptosis in human BGC-823 cells assessed as viable cells at 1.5 uM incubated for 48 hrs by Annexin V-FITC/PI staining based flow cytometric analysis ( Rvb = 90.09 %); format: functional; details: read-out: Activity
BGC-823 [8] = assay: Induction of apoptosis in human BGC-823 cells assessed as late apoptotic cells at 1.5 uM incubated for 48 hrs by Annexin V-FITC/PI staining based flow cytometric analysis ( Rvb = 5.61 %); format: functional
BGC-823 [9] = assay: Induction of apoptosis in human BGC-823 cells assessed as necrotic cells at 1.5 uM incubated for 48 hrs by Annexin V-FITC/PI staining based flow cytometric analysis ( Rvb = 1.79 %); format: functional
BGC-823 [10] = assay: Induction of apoptosis in human BGC-823 cells assessed as viable cells at 3 uM incubated for 48 hrs by Annexin V-FITC/PI staining based flow cytometric analysis ( Rvb = 90.09 %); format: functional; details: read-out: Activity
BGC-823 [11] = assay: Induction of apoptosis in human BGC-823 cells assessed as late apoptotic cells at 3 uM incubated for 48 hrs by Annexin V-FITC/PI staining based flow cytometric analysis ( Rvb = 5.61 %); format: functional
BGC-823 [12] = assay: Induction of apoptosis in human BGC-823 cells assessed as necrotic cells at 3 uM incubated for 48 hrs by Annexin V-FITC/PI staining based flow cytometric analysis ( Rvb = 1.79 %); format: functional
BGC-823 [13] = assay: Induction of apoptosis in human BGC-823 cells assessed as viable cells at 6 uM incubated for 48 hrs by Annexin V-FITC/PI staining based flow cytometric analysis ( Rvb = 90.09 %); format: functional; details: read-out: Activity
BGC-823 [14] = assay: Induction of apoptosis in human BGC-823 cells assessed as early apoptotic cells at 6 uM incubated for 48 hrs by Annexin V-FITC/PI staining based flow cytometric analysis ( Rvb = 1.68 %); format: functional
BGC-823 [15] = assay: Induction of apoptosis in human BGC-823 cells assessed as late apoptotic cells at 6 uM incubated for 48 hrs by Annexin V-FITC/PI staining based flow cytometric analysis ( Rvb = 5.61 %); format: functional
BGC-823 [16] = assay: Induction of apoptosis in human BGC-823 cells assessed as necrotic cells at 6 uM incubated for 48 hrs by Annexin V-FITC/PI staining based flow cytometric analysis ( Rvb = 1.79 %); format: functional
BGC-823 [17] = assay: Cell cycle arrest in human BGC-823 cells assessed as accumulation of cells at G2/M phase incubated for 24 hrs by PI staining based flow cytometric analysis; format: functional
BGC-823 [18] = assay: Antitumor activity against human BGC-823 cells xenografted in BALB/c nude mouse assessed as tumor growth inhibition at 5 mg/kg, ip administered for 21 days relative to control; format: functional; details: BGC-823, 504 h, time 21 day, read-out: TGI
[19] = Toxicity in BALB/c nude mouse xenografted with human BGC-823 cells assessed as change in body weight at 5 mg/kg, ip administered for 21 days; format: organism-based; details: in vivo, 504 h, time 21 day
BGC-823 [20] = assay: Antitumor activity against human BGC-823 cells xenografted in BALB/c nude mouse assessed as increase in ROS level in tumor at 5 mg/kg, ip administered for 21 days by DHE staining based analysis; format: functional, organism-based; details: time 21.0 day
BGC-823 [21] = assay: Antitumor activity against human BGC-823 cells xenografted in BALB/c nude mouse assessed as nuclear fragmentation in tumor at 5 mg/kg, ip administered for 21 days by H and E staining based analysis; format: functional, organism-based; details: time 21.0 day
BGC-823 [22] = assay: Antitumor activity against human BGC-823 cells xenografted in BALB/c nude mouse assessed as nuclear condensation in tumor at 5 mg/kg, ip administered for 21 days by H and E staining based analysis; format: functional, organism-based; details: time 21.0 day
[23] = Acute toxicity in ip dosed ICR mouse assessed as mortality rate by measuring ratio at 1.93 logarithm of dose relative to total number of mouse; format: organism-based; details: in vivo
[24] = Acute toxicity in ip dosed ICR mouse assessed as lethal dose; format: organism-based; details: in vivo
[25] = Acute toxicity in ip dosed ICR mouse assessed as effect on liver by H and E staining based analysis; format: organism-based; details: in vivo
[26] = Acute toxicity in ip dosed ICR mouse assessed as effect on spleen by H and E staining based analysis; format: organism-based; details: in vivo
[27] = Acute toxicity in ip dosed ICR mouse assessed as effect on kidney by H and E staining based analysis; format: organism-based; details: in vivo
BGC-823 [28] = assay: Antiproliferative activity against human BGC-823 cells assessed as reduction in cell viability at 0.52 to 7.68 uM preincubated with H2O2 for 2 hrs followed by compound addition and measured after 48 hrs by MTT assay; format: functional, cell-based; details: dose 0.52-7.68 µM
BGC-823 [29] = assay: Antiproliferative activity against human BGC-823 cells assessed as reduction in cell viability at 0.52 to 7.68 uM preincubated with NAC for 2 hrs followed by compound addition and measured after 48 hrs by MTT assay; format: functional, cell-based; details: dose 0.52-7.68 µM
[30] = Binding affinity to DTT in PBS assessed as UV peak appearance at 288 nm at 360 uM by UV-Vis spectra analysis
[31] = GSH reactivity in human BGC-823 cells assessed as GSSG/GSH ratio at 2 uM incubated for 24 hrs by microplate reader analysis (reference value: 0.34); format: ADME, cell-based; details: bgc-823, 24 h

CC1(C)CC[C@]2(C(=O)OCCCCOC(=O)c3ccc(OCc4ccc(B5OC(C)(C)C(C)(C)O5)cc4)cc3)CC[C@]3(C)[C@H](C(=O)C=C4[C@@]5(C)C=C(C#N)C(=O)C(C)(C)[C@@H]5CC[C@]43C)[C@@H]2C1
IC50 (MCF7): 2.9 µM
IC50 (HepG2): 6.5 µM
IC50 at 48 h [1]: 5 µM
IC50 at 48 h [2]: 4.5 µM
IC50 at 48 h [3]: 6.5 µM
IC50 (MGC-803): 3.6 µM
IC50 (SGC-7901): 3.2 µM
IC50 (NCI-N87): 2.5 µM
IC50 (BGC-823 [4]): 1.2 µM
Activity (Cell membrane [5]): 37.1%
Activity (Cell membrane [6]): 62.7%
viability at 1.5 µM (BGC-823 [7]): 87.1%
Activity (BGC-823 [8]): 7.62%
Activity (BGC-823 [9]): 3.23%
viability at 3 µM (BGC-823 [10]): 82.8%
Activity (BGC-823 [11]): 9.84%
Activity (BGC-823 [12]): 5.24%
viability at 6 µM (BGC-823 [13]): 75.8%
Activity (BGC-823 [14]): 3.71%
Activity (BGC-823 [15]): 14.9%
Activity (BGC-823 [16]): 5.58%
Activity (BGC-823 [17]): Dose-Dependent Effect
inhibition in vivo at 5 mg/kg (BGC-823 [18]): 86.2%
Activity [19]: Non-Toxic
Activity (BGC-823 [20]): Active
Activity (BGC-823 [21]): Active
Activity (BGC-823 [22]): Active
Ratio [23]: 0.17
LD50 [24]: 91.2 mg/kg
Activity [25]: Non-Toxic
Activity [26]: Non-Toxic
Activity [27]: Non-Toxic
Activity (BGC-823 [28]): Active
Activity (BGC-823 [29]): inactive
Activity [30]: inactive
Ratio [31]: 0.48
